Results taken from US20060142348A1, “Aryl sulfonamide peri-substituted bicyclics for occlusive artery disease” (deCODE Chemistry, Inc., priority 2004, published 2006).

Target: T1, prostanoid EP3 receptors (Homo sapiens, UniProt P43115)
T1 sequence (P43115 1-365 isoform P43115-3): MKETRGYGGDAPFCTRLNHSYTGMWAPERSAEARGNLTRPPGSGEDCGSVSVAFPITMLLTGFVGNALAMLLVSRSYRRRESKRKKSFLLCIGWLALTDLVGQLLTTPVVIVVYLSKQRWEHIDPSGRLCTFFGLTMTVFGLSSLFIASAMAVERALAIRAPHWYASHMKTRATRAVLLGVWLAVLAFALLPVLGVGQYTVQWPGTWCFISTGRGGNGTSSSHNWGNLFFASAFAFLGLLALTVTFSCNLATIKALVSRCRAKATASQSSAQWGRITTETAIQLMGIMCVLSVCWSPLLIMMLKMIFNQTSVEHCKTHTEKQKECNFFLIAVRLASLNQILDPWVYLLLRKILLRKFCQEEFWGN
Experiment: binding on prostanoid EP3 receptors (method of Abramovitz et al.)
Conditions: read-out: Activity (EP3 receptor binding IC50)
Description: The compounds of the invention may be assayed for their binding on prostanoid EP3 receptors according to the method of Abramovitz et al. [Bioch. Biophys. Actas 1473, 285-293 (2000)]. All of the examples in the tables below have been synthesized, characterized and tested for EP3 receptor binding.
The compounds of the invention were assayed for their binding on prostanoid EP3 receptors according to the method of Abramovitz et al. [Bioch. Biophys. Acta, 1473, 285-293 (2000)]. […] Compounds with IC50<1 μM are shown as +++; compounds with IC50<1-10 μM are shown as ++; and compounds with IC50>10 μM are shown as +.

IC50, < 1 µM:
Cc1cn(Cc2ccc3ccccc3c2)c2c(-c3cc(NS(=O)(=O)c4cc(F)c(F)cc4F)no3)cc(F)cc12 [Compound B39, 2,4,5-Trifluoro-N-[5-(5-fluoro-3-methyl-1-naphthalen-2-ylmethyl-1H-indol-7-yl)-isoxazol-3-yl]-benzenesulfonamide]
Cc1cn(Cc2ccc(F)c(F)c2)c2c(-c3cc(NS(=O)(=O)c4cc(Cl)c(Cl)s4)no3)cc(F)cc12 [Compound B31, 4,5-Dichloro-thiophene-2-sulfonic acid {5-[1-(3,4-difluoro-benzyl)-5-fluoro-3-methyl-1H-indol-7-yl]-isoxazol-3-yl}-amide]
Cc1cn(Cc2ccc(Cl)cc2Cl)c2c(-c3cc(NS(=O)(=O)c4ccc(Cl)c(Cl)c4)no3)cc(F)cc12 [Compound B37, 3,4-Dichloro-N-{5-[1-(2,4-dichloro-benzyl)-5-fluoro-3-methyl-1H-indol-7-yl]-isoxazol-3-yl}-benzenesulfonamide]
